Assay [1] can be described thus: Inhibition of IL-6-induced STAT3 phosphorylation in human Cal33 cells assessed as nuclear translocation by Western blot analysis. Background: Immunoblotting shows a protein as a band on a membrane.
Assay [2] has as its target T1, Signal transducer and activator of transcription 1-alpha/beta (Homo sapiens, UniProt P42224).
T1 sequence (P42224 whole entry): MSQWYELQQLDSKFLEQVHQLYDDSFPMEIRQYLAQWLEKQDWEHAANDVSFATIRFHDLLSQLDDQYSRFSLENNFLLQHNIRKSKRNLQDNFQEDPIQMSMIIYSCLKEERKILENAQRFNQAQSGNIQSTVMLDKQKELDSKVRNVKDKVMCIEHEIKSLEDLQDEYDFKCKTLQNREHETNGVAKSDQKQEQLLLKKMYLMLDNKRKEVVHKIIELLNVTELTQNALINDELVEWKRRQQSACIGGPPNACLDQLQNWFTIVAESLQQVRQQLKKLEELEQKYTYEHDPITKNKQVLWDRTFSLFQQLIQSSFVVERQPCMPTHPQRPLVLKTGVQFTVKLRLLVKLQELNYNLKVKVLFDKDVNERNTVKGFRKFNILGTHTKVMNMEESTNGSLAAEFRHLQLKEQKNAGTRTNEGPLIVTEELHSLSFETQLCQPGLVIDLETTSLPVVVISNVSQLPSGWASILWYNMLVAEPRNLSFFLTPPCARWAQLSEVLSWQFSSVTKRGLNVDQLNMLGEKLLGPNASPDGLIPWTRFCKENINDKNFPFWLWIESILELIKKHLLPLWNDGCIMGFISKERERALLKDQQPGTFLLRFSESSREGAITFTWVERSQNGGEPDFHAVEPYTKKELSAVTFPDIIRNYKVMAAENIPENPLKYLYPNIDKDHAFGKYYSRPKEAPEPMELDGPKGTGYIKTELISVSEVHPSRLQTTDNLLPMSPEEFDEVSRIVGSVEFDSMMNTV
The assay can be described thus: Inhibition of IFNgamma-induced STAT1 phosphorylation in human Cal33 cells by Western blot analysis.

With `Cc1nc(NCCc2c[nH]c3ccccc23)nc2ccccc12`, the concentration for half-maximal inhibition (IC50) in assay [1] and in assay [2] was greater than 30 µM in each case.
With `COc1ccc2c(C)nc(Nc3nc(C)cc(O)n3)nc2c1`, the IC50 (in general, the point on the concentration scale where inhibition reaches its midpoint) in assay [2] was greater than 50 µM.
Still for that read-out and setting: the result for `CCOc1ccc2nc(Nc3nc(=O)c(C)c(C)[nH]3)nc(C)c2c1` reads greater than 50 µM.
Compound `COc1ccc2nc(Nc3nc(=O)c(Cc4ccccc4)c(C)[nH]3)nc(C)c2c1` returned an IC50 in assay [2] of 50 µM.
Turning to `Cc1nc(NCc2ccc3c(c2)OCO3)nc2ccccc12`, the half-maximal inhibitory concentration (IC50) in assay [1] and in assay [2] was greater than 30 µM in each case.
In assay [2], `Cc1nc(Nc2ccccn2)nc2ccccc12` gave an IC50 greater than 30 µM.
Take `CCOc1ccc2nc(Nc3nc(=O)cc(C)[nH]3)nc(C)c2c1`: the IC50 in assay [2] is greater than 50 µM.
`Cc1nc(NCc2cccc3ccccc23)nc2ccccc12` yielded an IC50 in assay [2] greater than 30 µM.
The same measure, in the same setting: in the case of `Cc1nc(Nc2ccccc2)nc2ccccc12` it was greater than 30 µM.
`Cc1nc(NCc2ccccc2)nc2ccccc12`: the IC50 in assay [1] and in assay [2] was greater than 30 µM each time.
Turning to `Cc1cc(=O)nc(Nc2nc(C)c3cc4c(cc3n2)OCO4)[nH]1`, the IC50 in assay [1] and in assay [2] was greater than 50 µM in each case.
For `Cc1cc(=O)nc(Nc2nc(C)c3cc(C)c(C)cc3n2)[nH]1`, the IC50 in assay [2] was greater than 50 µM.
The compound `CCOc1ccc2c(C)nc(NC3=NC(C)=CC(C)(C)N3)nc2c1` [DNDI1417388] returned an IC50 in assay [2] greater than 50 µM.
The same measure, in the same setting: the result for `CC1=CC(C)(C)N=C(Nc2nc(C)c3cc(C)cc(C)c3n2)N1` [US9211296, Table 7, Compd: 9] reads 5.9 µM.
For `Cc1[nH]c(Nc2nc(C)c3cc4c(cc3n2)OCO4)nc(=O)c1Cc1ccccc1`, the IC50 in assay [1] and in assay [2] was greater than 50 µM in each case.
`C=CCc1c(C)[nH]c(Nc2nc(C)c3cc(C)cc(C)c3n2)nc1=O`: the IC50 in assay [2] is greater than 50 µM.
Consider `Cc1nc(Nc2nc(=O)cc(-c3ccccc3)[nH]2)nc2cc3c(cc12)OCO3`, for which the IC50 was 13 µM in assay [1] and greater than 50 µM in assay [2].
In the same order, the values of `Cc1nc(NCCN2CCOCC2)nc2ccccc12` are greater than 30 µM and greater than 30 µM.
The compound `Cc1cc(C)c2nc(Nc3nc(=O)cc(-c4ccccc4)[nH]3)nc(C)c2c1` showed an IC50 in assay [2] greater than 50 µM.
`Cc1[nH]c(Nc2nc(C)c3cc4c(cc3n2)OCO4)nc(=O)c1C`: the IC50 in assay [1] and in assay [2] was greater than 50 µM each time.
On to `Cc1cc(C)c2nc(Nc3nc(C)c(C)c(O)n3)nc(C)c2c1`, for which the IC50 was 6.4 µM in assay [1] and greater than 50 µM in assay [2].
`Cc1nc(NC2CCCCC2)nc2ccccc12` had an IC50 in assay [2] greater than 30 µM.
Same read-out and setting: in the case of `Cc1ccc2c(C)nc(Nc3nc(=O)cc(C)[nH]3)nc2c1` it was 39.7 µM.
For `Cc1cc2nc(Nc3nc(=O)c(C)c(C)[nH]3)nc(C)c2cc1C`, the IC50 in assay [1] was 10.4 µM; in assay [2] it was greater than 50 µM.
The compound `CC1=CC(C)(C)N=C(Nc2nc(C)c3cc(C)ccc3n2)N1` showed a half-inhibitory concentration (IC50) in assay [2] greater than 50 µM.
Still for that read-out and setting: in the case of `Cc1ccc(CNc2nc(C)c3ccccc3n2)o1` it was greater than 30 µM.
Same read-out and setting: the result for `Cc1ccc2c(C)nc(Nc3nc(=O)c(C)c(C)[nH]3)nc2c1` reads 35.2 µM.
Consider `COc1ccc2nc(Nc3nc(=O)cc(C)[nH]3)nc(C)c2c1`, for which the IC50 was 34.9 µM in assay [1] and greater than 50 µM in assay [2].
`CCOc1ccc2nc(NC3=NC(C)=CC(C)(C)N3)nc(C)c2c1` displayed an IC50 in assay [2] greater than 50 µM.
Same read-out and setting: the result for `CCOc1ccc2nc(Nc3nc(=O)cc(-c4ccccc4)[nH]3)nc(C)c2c1` reads greater than 50 µM.

The values are drawn from BindingDB's records for doi:10.1016/j.bmcl.2014.09.001 (University of Pittsburgh, 2014).
